Reference: article PMC7830900, “Cinnamoyl Sucrose Esters as Alpha Glucosidase Inhibitors for the Treatment of Diabetes” (Molecules, 2021)

Tests used:
[1] = target: T1, porcine pancreatic α-amylase (Sus scrofa, UniProt P00690); assay: In vitro α-amylase inhibition assay (starch/DNSA); assay type: biochemical; design: inhibition: dose or concentration left out as unconfirmed; settings: for IC50: dose-response 0–25 µg/mL
T1 sequence (P00690 16-511): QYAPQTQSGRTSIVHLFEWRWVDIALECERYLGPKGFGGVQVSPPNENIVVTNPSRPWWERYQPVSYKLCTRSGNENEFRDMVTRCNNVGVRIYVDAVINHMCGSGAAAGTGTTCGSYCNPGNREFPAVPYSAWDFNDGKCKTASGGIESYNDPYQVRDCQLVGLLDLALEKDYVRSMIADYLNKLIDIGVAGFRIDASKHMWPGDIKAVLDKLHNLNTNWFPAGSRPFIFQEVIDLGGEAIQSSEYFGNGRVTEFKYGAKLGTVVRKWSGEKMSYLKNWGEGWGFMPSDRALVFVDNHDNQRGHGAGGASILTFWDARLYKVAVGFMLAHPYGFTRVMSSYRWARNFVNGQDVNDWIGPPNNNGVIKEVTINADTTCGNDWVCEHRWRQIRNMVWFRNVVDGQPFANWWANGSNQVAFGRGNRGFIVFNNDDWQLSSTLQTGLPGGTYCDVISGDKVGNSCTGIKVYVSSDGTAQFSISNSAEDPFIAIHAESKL
Description: α-amylase inhibition was tested using previously reported methods […] The tubes were then incubated at 37 °C for 10 min. Next, 450 µL of 0.5% starch solution was added and the tubes were incubated for a further 20 min at 37 °C. Finally, 500 µL of Dinitro Salicylic Acid (DNSA) reagent was added and the tubes were placed in a boiling water bath for 15 min. The absorbance of the tubes was recorded at 540 nm and the % inhibition calculated using the same formula as for α-glucosidase, % inhibition = ΔAbscontrol−ΔAbssample/ΔAbscontrol × 100
All measurements were performed in triplicates and the values.

yeast α-glucosidase = yeast α-glucosidase (Saccharomyces cerevisiae, UniProt P53341); assay: In vitro α-glucosidase inhibition assay (PNPG substrate); assay type: biochemical; design: inhibition: dose or concentration left out as unconfirmed; settings: for IC50: dose-response 0–25 µg/mL
Chain of yeast α-glucosidase (P53341 whole entry): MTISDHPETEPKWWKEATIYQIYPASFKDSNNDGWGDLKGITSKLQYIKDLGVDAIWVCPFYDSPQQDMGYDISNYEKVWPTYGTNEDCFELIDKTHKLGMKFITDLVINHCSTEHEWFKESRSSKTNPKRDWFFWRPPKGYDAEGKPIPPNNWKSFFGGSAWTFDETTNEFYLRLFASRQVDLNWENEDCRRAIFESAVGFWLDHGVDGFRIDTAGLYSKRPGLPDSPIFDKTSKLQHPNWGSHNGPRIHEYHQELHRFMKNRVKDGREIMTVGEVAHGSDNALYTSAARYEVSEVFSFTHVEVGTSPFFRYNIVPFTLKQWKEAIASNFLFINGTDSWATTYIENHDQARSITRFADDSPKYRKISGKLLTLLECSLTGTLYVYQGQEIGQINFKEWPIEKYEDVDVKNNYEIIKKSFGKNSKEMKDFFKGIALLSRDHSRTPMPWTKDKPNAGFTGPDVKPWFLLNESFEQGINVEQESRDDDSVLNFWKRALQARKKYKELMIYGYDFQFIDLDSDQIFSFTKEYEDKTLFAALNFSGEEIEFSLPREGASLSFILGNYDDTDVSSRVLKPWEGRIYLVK
Description: α-Glucosidase inhibition was tested according to previously reported methods with some modifications. […] Fifty microliters of yeast α-glucosidase enzyme solution (0.5 U/mL in phosphate buffer) was added to the wells. The plate was incubated at 37 °C for 15 min. Next, 25 µL of 2.5 mM PNPG (4-nitrophenyl α-D-glucopyranoside) substrate solution (in phosphate buffer) was added. The microplate was incubated at 37 °C for another 15 min. The absorbance was then measured using a microplate reader at 405 nm. The percentage inhibition was calculated using the formula: % inhibition = ΔAbscontrol−ΔAbssample/ΔAbscontrol × 100
All measurements were performed in triplicates and the values. The IC50 values for selected CSEs were calculated by plotting a dose-response curve for a range of concentrations of the CSEs (0–25 µg/mL) for the selected CSEs (data not shown) and regression analysis was done using Graphpad Prism software using the in-built function.

STZ-treated mice = system: STZ-treated mice; design: method as in earlier work; settings: STZ-treated mice compared to control (starch only) mice; cited from earlier work
[2] = 25 μg/mL, mean ± SD, n = 3, less than 5% inhibition = No Significant Activity

Row | Structure (SMILES) | inhibition [1] [%] | inhibition (yeast α-glucosidase) [%] | further results
1 | CC1(C)OC[C@@]2(O[C@H]3O[C@@H]4COC(C)(C)O[C@H]4[C@H](O)[C@H]3O1)O[C@H](COC(=O)/C=C/c1ccccc1)[C@@H](O)[C@@H]2O [CSE 2] | – | – | % α-amylase inhibition [1, 2]: did not show significant inhibition activity; % α-glucosidase inhibition (yeast α-glucosidase; [2]): did not show significant inhibition activity
2 | CC1(C)OC[C@@]2(O[C@H]3O[C@@H]4COC(C)(C)O[C@H]4[C@H](O)[C@H]3O1)O[C@H](COC(=O)/C=C/c1ccccc1)[C@@H](O)[C@@H]2OC(=O)/C=C/c1ccccc1 [CSE 3] | 9 ± 5 | 35 ± 5 | –
3 | CC1(C)OC[C@@]2(O[C@H]3O[C@@H]4COC(C)(C)O[C@H]4[C@H](O)[C@H]3O1)O[C@H](COC(=O)/C=C/c1ccccc1)[C@@H](OC(=O)/C=C/c1ccccc1)[C@@H]2OC(=O)/C=C/c1ccccc1 [CSE 4] | 8 ± 4 | 32 ± 3 | –
4 | CC1(C)OCC2OC3OC4(COC(C)(C)OC3C(OC(=O)C=Cc3ccccc3)C2O1)OC(COC(=O)C=Cc1ccccc1)C(OC(=O)C=Cc1ccccc1)C4OC(=O)C=Cc1ccccc1 (stereo not shown) [CSE 5] | 98 ± 2 | 77 ± 5 | α-amylase IC50, fold less than acarbose [1]: five-fold less; IC50 ([1]; mean ± SD, n = 3): 1 ± 0.2 µM; α-glucosidase IC50, fold lower than acarbose (yeast α-glucosidase): over 36 fold; IC50 (yeast α-glucosidase; mean ± SD, n = 3): 9 ± 3 µM
5 | CC(=O)O[C@@H]1[C@H]2OC(C)(C)OC[C@@]3(O[C@H]2O[C@@H]2COC(C)(C)O[C@@H]12)O[C@H](COC(=O)/C=C/c1ccccc1)[C@@H](OC(C)=O)[C@@H]3OC(=O)/C=C/c1ccccc1 [CSE 6] | 14 ± 4 | 46 ± 3 | –
6 | CC(=O)O[C@@H]1[C@H]2OC(C)(C)OC[C@@]3(O[C@H]2O[C@@H]2COC(C)(C)O[C@@H]12)O[C@H](COC(=O)/C=C/c1ccccc1)[C@@H](OC(=O)/C=C/c1ccccc1)[C@@H]3OC(=O)/C=C/c1ccccc1 [CSE 7] | 13 ± 7 | 46 ± 2 | –
7 | O=C(/C=C/c1ccccc1)OC[C@H]1O[C@@](CO)(O[C@H]2O[C@H](CO)[C@@H](O)[C@H](O)[C@H]2O)[C@@H](OC(=O)/C=C/c2ccccc2)[C@@H]1OC(=O)/C=C/c1ccccc1 [CSE 8] | 16 ± 2 | 34 ± 4 | % α-glucosidase inhibition relative to % α-amylase inhibition (yeast α-glucosidase; 25 μg/mL, selectivity α-glucosidase over α-amylase): higher inhibition of α-glucosidase than α-amylase
8 | O=C(C=Cc1ccccc1)OCC1OC(CO)(OC2OC(CO)C(O)C(OC(=O)C=Cc3ccccc3)C2O)C(OC(=O)C=Cc2ccccc2)C1OC(=O)C=Cc1ccccc1 (stereo not shown) [CSE 9] | 99 ± 1 | 74 ± 9 | α-amylase IC50, fold less than acarbose [1]: five-fold less; IC50 ([1]; mean ± SD, n = 3): 0.8 ± 0.1 µM; α-glucosidase IC50, fold lower than acarbose (yeast α-glucosidase): over 36 fold; IC50 (yeast α-glucosidase; mean ± SD, n = 3): 9 ± 3 µM
9 | COc1cc(/C=C/C(=O)OC[C@H]2O[C@@](CO)(O[C@H]3O[C@H](CO)[C@@H](O)[C@H](OC(=O)/C=C/c4ccc(O)c(OC)c4)[C@H]3O)[C@@H](OC(=O)/C=C/c3ccc(O)c(OC)c3)[C@@H]2OC(=O)/C=C/c2ccc(O)c(OC)c2)ccc1O [FSE 1] | – | – | blood glucose excursion (STZ-treated mice): significantly reduced blood glucose excursion
10 | C[C@H]1O[C@H](O[C@H]2[C@H](O)[C@@H](O)[C@@H](O[C@H]3[C@H](O)[C@@H](O)C(O)O[C@@H]3CO)O[C@@H]2CO)[C@H](O)[C@@H](O)[C@@H]1N[C@H]1C=C(CO)[C@@H](O)[C@H](O)[C@H]1O (stereo partly shown) [acarbose, reference compound] | – | 27 ± 4 | inhibition at 25 µg/mL ([1]; read-out: % α-amylase inhibition): 93 ± 2%
